Results reported in US8883841B2, “Oncogenic ras-specific cytotoxic compound and methods of use thereof” (The Board of Regents of the University of Texas System, priority 2005, dated 2014).

Test system: T29Kt1 cells

## O=Cc1cn(Cc2ccc(Cl)cc2)c2ccccc12 [Oncrasin K001, 1H-Indole-3-carboxaldehyde, 1-[(4-chlorophenyl)methyl]-(9CI)]
33 μM
  time course of toxicity in T29Kt1 cells: time-dependent toxicity
K-ras mutant
  concentration that effectively kills T29K cells: 10 µM
Table 1, value is the negative log10 of mol/L
  IC50 in T29k cells: 5.6
read-out: IC50, T29Kt1 cells, dose-dependent cytotoxicity
  IC50: 2500 nM
Vs T29 and T29Ht1, 0.1 μM to 33 μM
  selectivity for T29Kt1 (T29K) cells in dose-response study: highly selective
